# Publication PMC3661926 (Acta Neuropathologica, 2013)
# Where two headings read alike, the source gives them in different places.
# Assays:
# RML scrapie [1] = format: in vivo, C57BL/6 mice; conditions: for Median/Mean* Survival Therapy / difference of survival therapy vs control: C57BL/6, RML i.c., 250 mg/kg
# in vivo = conditions: C57/BL6, mouse; for half-life: ip, 1 mg
# [2] = system: cultured human peripheral lymphocytes
# [3] = C57/BL6, mouse, in vivo
# [4] = in vivo
# actin = format: biochemical
# [5] = system: rotenone-treated C57Bl/6J mice; conditions: mouse, in vivo
# [6] = rat, in vivo, 2000 mg/kg
# MPTP-treated mice = conditions: mouse, in vivo
# [7] = system: Salmonella typhimurium strains TA 98, TA 100, TA 102, TA 1535 and TA 1537
# physchem = conditions: water
# [8] = system: prion strains RML, ME7, 301C, sCJD, vCJD; format: biochemical, mouse and human; conditions: 1 μl of 10 mM compound solution in DMSO
# RML scrapie [9] = assay: whole plant or invertebrate; format: in vivo, C57BL/6 mice
# [10] = mouse, in vivo, 2000 mg/kg
# PrP^Sc (vCJD prions) = PrP^Sc (vCJD prions) (Homo sapiens, UniProt P04156); assay: biochemical
# [11] = biological target: PrP^Sc (RML prion strain) (Mus musculus, UniProt P04925); assay: biochemical
# Chain of PrP^Sc (RML prion strain) (P04925 23-230 limits assumed): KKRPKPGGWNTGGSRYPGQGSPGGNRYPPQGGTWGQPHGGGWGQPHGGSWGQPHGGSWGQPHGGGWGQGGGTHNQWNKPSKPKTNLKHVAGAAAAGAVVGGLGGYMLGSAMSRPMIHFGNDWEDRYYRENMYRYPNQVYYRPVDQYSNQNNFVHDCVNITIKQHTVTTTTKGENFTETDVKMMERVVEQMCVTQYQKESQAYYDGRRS
smiles,measurement,setting,value
"Brc1cccc(-c2cc(-c3ccc4c(c3)OCO4)n[nH]2)c1 [anle138b, 3-(1,3-benzodioxol-5-yl)-5-(3-bromophenyl)-1H-pyrazole]",motor performance in prion infected mice,"RML scrapie [1]; 160 d.p.i., arena movement tracking",unimpaired
same,Median/Mean* Survival Therapy,RML scrapie [1]; 0 dpi oral,355 days
same,difference of survival therapy vs control,RML scrapie [1]; 0 dpi oral,175 days
same,Median/Mean* Survival Therapy,RML scrapie [1]; 80 dpi oral,242 days
same,difference of survival therapy vs control,RML scrapie [1]; 80 dpi oral,74 days
same,Median/Mean* Survival Therapy,RML scrapie [1]; 120 dpi oral,224 days
same,difference of survival therapy vs control,RML scrapie [1]; 120 dpi oral,52 days
same,size distribution of PrP^Sc aggregates (sucrose-gradient centrifugation),"RML scrapie [1]; brain homogenates of treated mice, fractions 7–12",strong reduction of high molecular weight species
same,"pyknotic nuclei, cerebellar granule cell layer","RML scrapie [1]; mouse, in vivo",significantly reduced number of pyknotic nuclei
same,time for which weight loss is prevented,RML scrapie [1]; treatment from 80 dpi onwards,~ 100 days
same,time for which further weight loss is inhibited,RML scrapie [1]; treatment from 120 dpi,~ 70 days
same,Median survival,RML scrapie [1]; treatment from day 80 post i.c. infection (5 mg daily oral),"242,5"
same,Median survival,RML scrapie [1]; treatment from day 120 post i.c. infection (5 mg daily oral),"224,0"
same,Kp,in vivo,~3
same,half-life,in vivo; half-life t½ in brain,2.9 h
same,half-life,in vivo; half-life t½ in serum,2.4 h
same,"clastogenic activity, conclusion",[2],no indications of mutagenic properties
same,AUC after oral application compared to i.p. application,[3],approximately 50%
same,"metabolites in brain extracts (HPLC, high resolution MS)","[4]; C57/BL6, mouse",did not identify metabolites of anle138b
same,conc. brain,"[4]; mouse, po",34.1 nmol/g
same,effect on actin polymerization,actin,do not affect actin polymerization
same,1-h stool collection gut motility test,[5],complete rescue of enteric function
same,motor performance (Rotarod),[5],significantly improved motor performance
same,"acute toxicity, single oral administration",[6],not reveal any signs of toxicity and no mortality
same,loss of dopaminergic (TH-positive) neurons in substantia nigra,MPTP-treated mice,significantly ameliorated
same,concentration with test item precipitation,[7],≥ 100 µg/plate
same,"cytotoxicity, preliminary test",[7],No signs of cytotoxicity
same,mutagenic effect (revertant colony numbers),[7],No mutagenic effect
same,solubility,physchem,< 1 µM
same,"inhibitory activity in PMCA, all prion strains tested",[8],strong inhibitory activity in all prion strains tested
same,% inhibition PrP^Sc in vivo (c),"RML scrapie [9]; PrP^Sc level in brain 106 days after i.c. infection, treatment 24 days: 14 days i.p. 0.84 mg, 2 × 5 days oral gavage 1 mg",108%
same,% inhibition PrP^Sc in vivo (b),"RML scrapie [9]; PrP^Sc level in spleen 35 days after i.p. infection, 34 days treatment with 1 mg compound oral in peanut butter",57%
same,"change of PrPSc levels in brain, mixed application scheme","RML scrapie [9]; from 80 dpi: 14 days i.p. 0.84 mg, 2 x 5 days gavage 1 mg, measured at 95 and 106 dpi",decrease in PrPSc levels
same,inhibition in vivo at 1 mg,"RML scrapie [9]; in Mus musculus, po, 2880 h, read-out: % inhibition PrP^Sc in vivo (a)",78%
same,"acute toxicity, single oral administration",[10],did not reveal any signs of toxicity and no mortality
same,EC50,PrP^Sc (vCJD prions),7.1 µM
same,EC50,[11],7.3 µM
same,inhibition at 10 µM,[11]; read-out: % inhibition PrP^Sc PMCA,84%
